Measured values reported in US8691753B2 (priority 2009, dated 2014).
Where two headings read alike, the source gives them in different places.

Key:
[1] = target: MMP-7h (Homo sapiens (Human), UniProt P09237); assay: Inhibition constant (Ki) on MMP-7h; format: biochemical; conditions: for Ki: human MMP-7
Excerpt: (§1) The inhibition constant Ki of these compounds has been determined according to the protocol described by Devel et al, 2006, J. Biol. Chem. (7).
(§2) In this table I and also in table II below, “h” corresponds to human. All of the compounds have therefore been evaluated on human MMPs.

[2] = target: MMP-14h (Homo sapiens (Human), UniProt P50281); assay: Inhibition constant (Ki) on MMP-14h; format: biochemical; conditions: for Ki: human MMP-14
Outline: (§3)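 Protocol from prior literature applied; inhibition constants measured for human enzymes only.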

[3] = target: MMP-3h (Homo sapiens (Human), UniProt P08254); assay: Inhibition constant (Ki) on MMP-3h; format: biochemical; conditions: for Ki: human MMP-3
Sequence of MMP-3h (P08254 100-477): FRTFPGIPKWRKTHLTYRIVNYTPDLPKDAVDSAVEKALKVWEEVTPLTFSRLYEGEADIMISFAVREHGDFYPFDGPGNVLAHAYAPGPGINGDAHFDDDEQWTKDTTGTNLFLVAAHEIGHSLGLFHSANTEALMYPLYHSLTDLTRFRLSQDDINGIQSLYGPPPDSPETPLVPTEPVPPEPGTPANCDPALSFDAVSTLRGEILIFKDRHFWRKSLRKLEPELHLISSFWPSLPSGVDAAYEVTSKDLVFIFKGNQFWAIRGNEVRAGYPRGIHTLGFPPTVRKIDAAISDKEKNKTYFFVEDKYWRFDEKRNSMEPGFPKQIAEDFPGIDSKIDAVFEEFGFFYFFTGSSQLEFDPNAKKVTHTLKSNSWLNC
Outline: as §3

[4] = system: human MMPs; assay: Inhibition of the panel of human MMPs (overall statements, selectivity); format: biochemical; conditions: for selectivity factor F = Ki MMP-x/Ki MMP-12: other human MMPs versus MMP-12; for inhibitory activity toward MMPs (in words): summary of table I
[5] = target: MMP-2h (Homo sapiens (Human), UniProt P08253); assay: Inhibition constant (Ki) on MMP-2h; format: biochemical; conditions: for Ki: human MMP-2
Sequence of MMP-2h (P08253 110-660): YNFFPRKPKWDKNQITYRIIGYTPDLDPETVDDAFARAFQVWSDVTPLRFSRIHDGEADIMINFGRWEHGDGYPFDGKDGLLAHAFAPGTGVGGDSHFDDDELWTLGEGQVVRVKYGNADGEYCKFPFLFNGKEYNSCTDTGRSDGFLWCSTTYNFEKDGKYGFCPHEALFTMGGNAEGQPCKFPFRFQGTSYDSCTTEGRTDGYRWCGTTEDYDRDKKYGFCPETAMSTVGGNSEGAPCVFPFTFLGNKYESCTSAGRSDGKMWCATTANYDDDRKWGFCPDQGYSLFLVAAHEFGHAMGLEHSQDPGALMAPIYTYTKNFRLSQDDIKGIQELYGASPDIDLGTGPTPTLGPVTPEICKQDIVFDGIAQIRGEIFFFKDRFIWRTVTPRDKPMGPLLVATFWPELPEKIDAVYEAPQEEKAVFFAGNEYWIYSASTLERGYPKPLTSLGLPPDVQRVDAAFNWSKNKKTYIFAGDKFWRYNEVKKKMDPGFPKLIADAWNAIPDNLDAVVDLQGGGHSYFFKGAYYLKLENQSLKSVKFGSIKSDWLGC
Outline: as §3

[6] = target: MMP-9h (Homo sapiens (Human), UniProt P14780); assay: Inhibition constant (Ki) on MMP-9h; format: biochemical; conditions: for Ki: human MMP-9
Sequence of MMP-9h (P14780 94-707): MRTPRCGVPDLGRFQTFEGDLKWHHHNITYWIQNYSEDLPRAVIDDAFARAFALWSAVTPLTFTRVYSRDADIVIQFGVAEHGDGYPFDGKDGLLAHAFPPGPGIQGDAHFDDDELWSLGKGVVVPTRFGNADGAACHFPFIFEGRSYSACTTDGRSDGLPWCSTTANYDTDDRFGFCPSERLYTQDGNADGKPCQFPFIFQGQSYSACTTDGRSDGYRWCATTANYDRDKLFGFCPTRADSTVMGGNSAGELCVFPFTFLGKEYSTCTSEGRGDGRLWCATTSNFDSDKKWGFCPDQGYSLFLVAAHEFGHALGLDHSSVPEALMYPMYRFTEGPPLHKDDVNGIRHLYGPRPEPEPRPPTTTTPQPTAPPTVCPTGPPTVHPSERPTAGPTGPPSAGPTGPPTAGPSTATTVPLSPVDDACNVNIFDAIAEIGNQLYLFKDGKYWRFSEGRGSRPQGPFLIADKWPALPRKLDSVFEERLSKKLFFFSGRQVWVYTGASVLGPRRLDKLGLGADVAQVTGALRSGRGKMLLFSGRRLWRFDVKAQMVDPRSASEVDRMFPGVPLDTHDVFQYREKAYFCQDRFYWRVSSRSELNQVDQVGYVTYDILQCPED
Outline: as §3

[7] = target: MMP-13h (Homo sapiens (Human), UniProt P45452); assay: Inhibition constant (Ki) on MMP-13h; format: biochemical; conditions: for Ki: human MMP-13
Outline: as §3

[8] = target: MMP-12h (Homo sapiens (Human), UniProt P39900); assay: Inhibition constant (Ki) on MMP-12h; format: biochemical; conditions: for Ki: read-out: Ki MMP-12h, human MMP-12
Sequence of MMP-12h (P39900 106-470): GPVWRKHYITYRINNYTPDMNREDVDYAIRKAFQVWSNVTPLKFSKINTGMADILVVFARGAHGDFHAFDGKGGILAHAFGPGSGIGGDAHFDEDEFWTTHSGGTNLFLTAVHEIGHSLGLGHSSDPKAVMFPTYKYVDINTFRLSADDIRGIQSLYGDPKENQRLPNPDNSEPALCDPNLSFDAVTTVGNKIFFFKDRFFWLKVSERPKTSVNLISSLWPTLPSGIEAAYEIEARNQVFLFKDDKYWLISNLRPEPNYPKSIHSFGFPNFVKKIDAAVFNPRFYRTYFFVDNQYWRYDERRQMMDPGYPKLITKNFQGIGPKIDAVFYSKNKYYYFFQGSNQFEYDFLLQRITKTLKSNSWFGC

[9] = target: MMP-10h (Homo sapiens (Human), UniProt P09238); assay: Inhibition constant (Ki) on MMP-10h; format: biochemical; conditions: for Ki: human MMP-10
Sequence of MMP-10h (P09238 99-476): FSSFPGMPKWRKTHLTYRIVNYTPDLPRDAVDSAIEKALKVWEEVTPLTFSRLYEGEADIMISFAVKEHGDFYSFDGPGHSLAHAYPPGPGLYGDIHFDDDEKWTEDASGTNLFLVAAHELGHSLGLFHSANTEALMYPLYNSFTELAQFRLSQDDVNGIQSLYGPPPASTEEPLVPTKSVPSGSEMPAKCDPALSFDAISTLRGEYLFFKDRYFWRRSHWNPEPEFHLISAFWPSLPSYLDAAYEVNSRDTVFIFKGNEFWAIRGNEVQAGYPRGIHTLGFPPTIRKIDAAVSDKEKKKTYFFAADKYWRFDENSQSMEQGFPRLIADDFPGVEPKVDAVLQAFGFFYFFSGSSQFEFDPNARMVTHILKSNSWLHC

[10] = target: MMP-1h (Homo sapiens (Human), UniProt P03956); assay: Inhibition constant (Ki) on MMP-1h; format: biochemical; conditions: for Ki: human MMP-1
Sequence of MMP-1h (P03956 100-469): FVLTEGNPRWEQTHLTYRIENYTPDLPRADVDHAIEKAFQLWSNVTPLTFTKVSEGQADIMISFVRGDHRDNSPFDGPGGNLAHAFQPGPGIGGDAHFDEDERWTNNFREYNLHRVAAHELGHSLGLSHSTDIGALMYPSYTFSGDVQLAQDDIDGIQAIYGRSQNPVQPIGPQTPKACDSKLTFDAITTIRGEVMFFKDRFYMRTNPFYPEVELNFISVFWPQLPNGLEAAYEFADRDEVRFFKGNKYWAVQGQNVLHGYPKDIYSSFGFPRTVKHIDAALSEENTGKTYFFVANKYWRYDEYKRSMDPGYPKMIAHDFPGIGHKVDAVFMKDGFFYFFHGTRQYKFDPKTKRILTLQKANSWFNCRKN
Excerpt: as §1, §2

[11] = target: MMP-8h (Homo sapiens (Human), UniProt P22894); assay: Inhibition constant (Ki) on MMP-8h; format: biochemical; conditions: for Ki: human MMP-8
Sequence of MMP-8h (P22894 101-467): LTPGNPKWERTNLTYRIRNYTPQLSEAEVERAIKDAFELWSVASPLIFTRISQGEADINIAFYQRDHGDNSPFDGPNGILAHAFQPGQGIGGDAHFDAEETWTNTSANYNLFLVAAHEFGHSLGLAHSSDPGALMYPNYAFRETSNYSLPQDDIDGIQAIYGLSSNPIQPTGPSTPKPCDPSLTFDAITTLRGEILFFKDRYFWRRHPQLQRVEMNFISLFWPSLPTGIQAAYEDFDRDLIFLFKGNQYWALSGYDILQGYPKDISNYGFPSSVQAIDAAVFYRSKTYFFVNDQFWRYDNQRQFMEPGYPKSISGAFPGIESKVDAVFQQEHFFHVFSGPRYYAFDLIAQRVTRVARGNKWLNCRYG

[12] = Stability test in mouse blood; format: in vitro ADME; conditions: after 24 hours in mouse blood
Description: The loss of 50% of the starting material can be attributed to a phenomenon of nonspecific association of the compound with the wall of the eppendorf. It should be noted that this 50% loss of the compound was also observed after 24 hours for a solution at 10 nM in PBS buffer or in a solution at 1 μM of PBS (Bovine Serum Albumin).

Sequence of MMP-7h (P09237 95-267): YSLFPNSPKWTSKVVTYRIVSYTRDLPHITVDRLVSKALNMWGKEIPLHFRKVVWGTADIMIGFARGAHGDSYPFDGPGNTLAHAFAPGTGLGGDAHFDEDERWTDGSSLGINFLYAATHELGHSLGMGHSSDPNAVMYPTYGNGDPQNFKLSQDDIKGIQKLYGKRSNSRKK

Compound | Ki ([1]; read-out: Ki MMP-7h) [µM] | Ki ([2]; read-out: Ki MMP-14h) [µM] | Ki ([3]; read-out: Ki MMP-3h) [µM] | selectivity factor F = Ki MMP-x/Ki MMP-12 [4] | Ki ([5]; read-out: Ki MMP-2h) [µM] | Ki ([6]; read-out: Ki MMP-9h) [µM] | Ki ([7]; read-out: Ki MMP-13h) [µM] | Ki [8] [µM] | Ki ([9]; read-out: Ki MMP-10h) [µM] | Ki ([10]; read-out: Ki MMP-1h) [µM] | Ki ([11]; read-out: Ki MMP-8h) [µM] | inhibitory activity toward MMPs (in words) [4] | further results
NC(=O)[C@H](CCC(=O)O)NC(=O)[C@H](CCC(=O)O)NC(=O)[C@@H](CC(=O)O)Cc1ccc(-c2cc(-c3ccccc3)cs2)cc1 [95 bis, (S)-5-amino-4-((S)-4-carboxy-2-((R)-3-carboxy-2-(4-(4-phenylthiophen-2-yl)benzyl)propanamido)butanamido)-5-oxopentanoic acid] | > 1 | 0.118 | 0.579 | > 100 | 0.401 | > 1 | 0.198 | 0.0003 | 0.08 | > 1 | 0.52 | – | Selectivity factor/MMP12, MMP-7h ([1]; Ki MMP-7h/Ki MMP-12): 3333; Selectivity factor/MMP12, MMP-14h ([2]; Ki MMP-14h/Ki MMP-12): 395; Selectivity factor/MMP12, MMP-3h ([3]; Ki MMP-3h/Ki MMP-12): 1930; Selectivity factor/MMP12, MMP-2h ([5]; Ki MMP-2h/Ki MMP-12): 1340; Selectivity factor/MMP12, MMP-9h ([6]; Ki MMP-9h/Ki MMP-12): 3333; Selectivity factor/MMP12, MMP-13h ([7]; Ki MMP-13h/Ki MMP-12): 660; improvement of affinity with respect to MMP-12 compared with compound 95 (factor) [8]: 6; Selectivity factor/MMP12, MMP-12h ([8]; Ki MMP-12h/Ki MMP-12): 1; Selectivity factor/MMP12, MMP-10h ([9]; Ki MMP-10h/Ki MMP-12): 270; Selectivity factor/MMP12, MMP-1h ([10]; Ki MMP-1h/Ki MMP-12): 3333; Selectivity factor/MMP12, MMP-8h ([11]; Ki MMP-8h/Ki MMP-12): 1730
NC(=O)[C@H](CCCC(=O)O)NC(=O)[C@H](CCC(=O)O)NC(=O)CCc1ccc(-c2cc(-c3ccccc3)cs2)cc1 [Compound 103, (S)-6-amino-5-((S)-4-carboxy-2-(3-(4-(4-phenylthiophen-2-yl)phenyl)propanamido)butanamido)-6-oxohexanoic acid] | > 5 | > 1 | > 5 | > 100 | > 1 | > 5 | 0.563 | 0.0029 | 0.845 | > 10 | 0.656 | – | –
NC(=O)CC[C@H](NC(=O)[C@H](CCC(=O)O)NC(=O)CCc1ccc(-c2cc(-c3ccccc3)cs2)cc1)C(N)=O [Compound 99, (S)-5-((S)-1,5-diamino-1,5-dioxopentan-2-ylamino)-5-oxo-4-(3-(4-(4-phenylthiophen-2-yl)phenyl)propanamido)pentanoic acid] | > 10 | > 1 | > 10 | > 100 | > 1 | > 5 | 0.522 | 0.0054 | > 1 | > 10 | > 1 | – | –
NC(=O)[C@H](CCC(=O)O)NC(=O)[C@H](CCC(=O)O)NC(=O)CCc1csc(-c2ccccc2)n1 [Compound 27, (S)-5-amino-4-((S)-4-carboxy-2-(3-(2-phenylthiazol-4-yl)propanamido)butanamido)-5-oxopentanoic acid] | – | > 5 | > 1 | – | > 1 | > 5 | 0.9 | > 5 | > 5 | – | > 1 | do not have any inhibitory activity | –
NC(=O)[C@H](CCC(=O)O)NC(=O)[C@H](CCC(=O)O)NC(=O)CCc1noc(-c2ccccc2)n1 [Compound 26, (S)-5-amino-4-((S)-4-carboxy-2-(3-(5-phenyl-1,2,4-oxadiazol-3-yl)propanamido)butanamido)-5-oxopentanoic acid] | – | > 5 | > 5 | – | > 5 | > 1 | > 1 | > 1 | > 5 | – | > 5 | do not have any inhibitory activity | –
NC(=O)[C@H](CCC(=O)O)NC(=O)[C@H](CCC(=O)O)NC(=O)CCc1cc(-c2ccc(-c3cccc(Cl)c3)cc2)no1 [Compound 3, (S)-5-amino-4-((S)-4-carboxy-2-(3-(3-(3′-chlorobiphenyl-4-yl)isoxazol-5-yl)propanamido)butanamido)-5-oxopentanoic acid] | > 1 | > 1 | 0.062 | – | 0.076 | 0.565 | 0.04 | – | 0.047 | > 10 | 0.181 | quite a powerful inhibitor of MMPs 2, 3, 10, 12 and 13 | –
NC(=O)[C@H](CCC(=O)O)NC(=O)[C@H](CCC(=O)O)NC(=O)CCc1ccc(-c2ccccc2)cc1 [Compound 40, (S)-5-amino-4-((S)-2-(3-(biphenyl-4-yl)propanamido)-4-carboxybutanamido)-5-oxopentanoic acid] | – | – | – | – | – | – | – | – | – | – | – | – | by-product resulting from the compound ([12]; LC-MS and MS/MS): No by-product; amount detected in intact form ([12]; LC-MS, initial solution 10 nM): 50 fmol; loss of the starting material ([12]; attributed to nonspecific association with the eppendorf wall): 50%; Ki [1]: > 10 µM; Ki [2]: > 5 µM; Ki [3]: > 5 µM; Ki [5]: 0.445 µM; Ki [6]: > 1 µM; Ki [7]: 0.689 µM; Ki [9]: > 1 µM; Ki [10]: > 100 µM; Ki [11]: 0.226 µM
NC(=O)[C@H](CCC(=O)O)NC(=O)[C@H](CCC(=O)O)NC(=O)CCc1cn(-c2ccccc2)nn1 [Compound 24, (S)-5-amino-4-((S)-4-carboxy-2-(3-(1-phenyl-1H-1,2,3-triazol-4-yl)propanamido)butanamido)-5-oxopentanoic acid] | – | > 5 | > 1 | – | > 5 | > 1 | > 5 | > 1 | > 1 | – | > 1 | do not have any inhibitory activity | –
NC(=O)[C@H](CC(=O)O)NC(=O)[C@H](CCC(=O)O)NC(=O)CCc1ccc(-c2cc(-c3ccccc3)cs2)cc1 [Compound 101, (S)-5-((S)-1-amino-3-carboxy-1-oxopropan-2-ylamino)-5-oxo-4-(3-(4-(4-phenylthiophen-2-yl)phenyl)propanamido)pentanoic acid] | > 100 | > 1 | > 5 | > 100 | > 1 | > 5 | 0.933 | 0.00256 | 0.571 | > 100 | 0.379 | – | –
NC(=O)[C@H](CCC(=O)O)NC(=O)[C@H](CCC(=O)O)NC(=O)CCc1cc(-c2ccccc2)on1 [Compound 25, (S)-5-amino-4-((S)-4-carboxy-2-(3-(5-phenylisoxazol-3-yl)propanamido)butanamido)-5-oxopentanoic acid] | – | > 1 | > 5 | – | > 1 | > 5 | 0.55 | 0.16 | > 1 | – | 0.332 | MMP inhibitors | –
